Reference: patent publication US8519149B2, “Tricyclic compounds as mPGES-1 inhibitors” (Glenmark Pharmaceuticals S.A., priority 2010, dated 2013)
pIC50: −log10 of the molar value. Each block holds one compound with its values, some of them ahead of it.

Target: T1, Recombinant human mPGES-1 (Homo sapiens, UniProt O14684)
T1 sequence (O14684 1-152): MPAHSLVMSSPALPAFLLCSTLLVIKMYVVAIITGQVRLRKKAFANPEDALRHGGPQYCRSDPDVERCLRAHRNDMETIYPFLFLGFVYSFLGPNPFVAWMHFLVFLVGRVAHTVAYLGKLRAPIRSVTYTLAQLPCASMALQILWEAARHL
Assay: In-vitro mPGES-1 enzyme inhibition assay (PGE2 formation from PGH2, HTRF detection)
Assay type: biochemical
Conditions: for inhibition at 1 µM: 1 μM test compound, read-out: Percentage inhibition at 1 μM; for inhibition at 1 µM / inhibition at 10 µM: recombinant human mPGES-1 microsomal fraction; for inhibition at 10 µM: 10 μM test compound, read-out: Percentage inhibition at 10 μM; for pIC50: class symbols, selected examples
Text: In-Vitro Protocol for Screening of mPGES-1 Inhibitors: mPGES-1 (microsomal prostaglandin E synthase-1) is a microsomal enzyme that converts endoperoxide substrate PGH2 (prostaglandin H2) to product PGE2 (prostaglandin E2) by isomerization in the presence of reduced glutathione (GSH). mPGES-1 inhibitors were screened by assessing their ability to inhibit formation of PGE2 from PGH2 in presence of mPGES-1 using anti-PGE2 antibody based detection method. […] Assay was set up using crude microsomal fractions at protein concentration of 40-60 μg/mL. […] Final concentration of DMSO in reaction was 0.5% (v/v). Negative controls comprised of all assay reagents except the enzyme. Positive controls comprised of enzyme reaction in the absence of any inhibitor. […] Reaction was stopped by addition of Stannous chloride (11 mg/ml) and PGE2 levels were measured ([…] et al. […] Inhibition of mPGES-1 enzyme activity was measured using percent of reaction occurring in the positive control. Concentration response curves were plotted using percent inhibition of maximum enzyme reaction. IC50 value was calculated from concentration response curve by nonlinear regression analysis using GraphPad PRISM software.

SMILES: Cn1c(Nc2c(Cl)cncc2Cl)nc2cc(C(=O)Nc3cc(C4CC4)ccc3F)c3c(c21)CC(C)(C)O3 [Example-217, N-(5-Cyclopropyl-2-fluorophenyl)-2-((3,5-dichloropyridin-4-yl)amino)-1,7,7-trimethyl-7,8-dihydro-1H-benzofuro[4,5-d]imidazole-5-carboxamide]
inhibition at 1 µM: 96.2%
inhibition at 10 µM: 99.9%

SMILES: Cc1cc2c(o1)c(C(=O)NCc1ccccc1C(F)(F)F)cc1nc(Nc3c(Cl)cccc3Cl)[nH]c12 [Example-85, 2-[(2,6-Dichlorophenyl)amino]-7-methyl-N-[2-(trifluoromethyl)benzyl]-1H-furo[3,2-e]benzimidazole-5-carboxamide]
inhibition at 1 µM: 93.3%
inhibition at 10 µM: 95.4%
pIC50: 7.00 to 7.30

SMILES: Cn1c(Nc2c(Cl)cncc2Cl)nc2cc(C(=O)Nc3cc(C(F)(F)F)ccc3F)c3c(c21)CC(C)(C)O3 [Example-218, 2-((3,5-Dichloropyridin-4-yl)amino)-N-(2-fluoro-5-(trifluoromethyl)phenyl)-1,7,7-trimethyl-7,8-dihydro-1H-benzofuro[4,5-d]imidazole-5-carboxamide]
inhibition at 1 µM: 99.4%
inhibition at 10 µM: 100%

SMILES: CC1(C)Cc2c(c(C(=O)Nc3cccc(C(F)(F)F)c3)cc3nc(NC(=O)c4c(F)cccc4Cl)[nH]c23)O1 [Example-143, 2-(2-Chloro-6-fluorobenzamido)-7,7-dimethyl-N-(3-(trifluoromethyl)phenyl)-7,8-dihydro-1H-benzofuro[4,5-d]imidazole-5-carboxamide]
inhibition at 1 µM: 19.6%
inhibition at 10 µM: 39.2%

SMILES: Cc1cc2c(o1)c(C(=O)NCC1CCCCC1)cc1nc(Nc3c(F)cccc3Cl)[nH]c12 [Example-49, 2-[(2-Chloro-6-fluorophenyl)amino]-N-(cyclohexylmethyl)-7-methyl-1H-furo[3,2-e]benzimidazole-5-carboxamide]
inhibition at 1 µM: 91.6%
inhibition at 10 µM: 96.1%

SMILES: Cn1c(Nc2c(F)cccc2Cl)nc2cc(C(=O)Nc3cccc(C(F)(F)F)c3)c3c(c21)CC(C)(C)O3 [Example-139, 2-((2-Chloro-6-fluorophenyl)amino)-1,7,7-trimethyl-N-(3-(trifluoromethyl)phenyl)-7,8-dihydro-1H-benzofuro[4,5-d]imidazole-5-carboxamide]
inhibition at 1 µM: 95.9%
inhibition at 10 µM: 99.2%
pIC50: > 7.30

SMILES: CC1(C)Cc2c(c(C(=O)N3CCOCC3)cc3nc(Nc4c(Cl)cncc4Cl)[nH]c23)O1 [Example-20, {2-[(3,5-Dichloropyridin-4-yl)amino]-7,7-dimethyl-7,8-dihydro-1H-furo[3,2-e]benzimidazol-5-yl}(morpholin-4-yl)methanone]
inhibition at 1 µM: 10.5%
inhibition at 10 µM: 44.9%

SMILES: Cc1cc2c(o1)c(C(=O)Nc1cccc(C(F)(F)F)c1)cc1nc(Nc3c(Cl)cccc3Cl)[nH]c12 [Example-68, 2-[(2,6-Dichlorophenyl)amino]-7-methyl-N-[3-(trifluoromethyl)phenyl]-1H-furo[3,2-e]benzimidazole-5-carboxamide]
inhibition at 1 µM: 97.6%
inhibition at 10 µM: 98.5%

SMILES: CC1(C)Cc2c(c(C(=O)Nc3ccc(C4CC4)cc3)cc3nc(Nc4c(F)cccc4Cl)[nH]c23)O1 [Example-140, 2-((2-Chloro-6-fluorophenyl)amino)-N-(4-cyclopropylphenyl)-7,7-dimethyl-7,8-dihydro-1H-benzofuro[4,5-d]imidazole-5-carboxamide]
inhibition at 1 µM: 97.1%
inhibition at 10 µM: 98.9%
pIC50: > 7.30

SMILES: Cc1nc2c(o1)c(C(=O)Nc1ccc(C(C)(C)C)cc1)cc1nc(Nc3c(Cl)cccc3Cl)[nH]c12 [Example-180, N-(4-tert-Butylphenyl)-7-[(2,6-dichlorophenyl)amino]-2-methyl-8H-imidazo[4,5-e][1,3]benzoxazole-4-carboxamide]
inhibition at 1 µM: 98.7%
inhibition at 10 µM: 97.3%
pIC50: > 7.30

SMILES: Cc1cccc(Cl)c1Nc1nc2cc(C(=O)NCc3ccc(F)cc3C(F)(F)F)c3c(c2[nH]1)CC(C)(C)O3 [Example-130, 2-((2-Chloro-6-methylphenyl)amino)-N-(4-fluoro-2-(trifluoromethyl)benzyl)-7,7-dimethyl-7,8-dihydro-1H-benzofuro[4,5-d]imidazole-5-carboxamide]
inhibition at 1 µM: 74.6%
inhibition at 10 µM: 96.8%

SMILES: COc1cc(OC)cc(-c2noc(-c3cc4nc(Nc5c(Cl)cccc5Cl)[nH]c4c4c3OC(C)(C)C4)n2)c1 [Example-162, N-(2,6-Dichlorophenyl)-5-(3-(3,5-dimethoxyphenyl)-1,2,4-oxadiazol-5-yl)-7,7-dimethyl-7,8-dihydro-1H-benzofuro[4,5-d]imidazol-2-amine]
inhibition at 1 µM: 62.3%
inhibition at 10 µM: 80.8%

SMILES: CC1(C)Cc2c(c(C(=O)Nc3ccc(OCC4CC4)nc3)cc3nc(Nc4c(F)cccc4Cl)[nH]c23)O1 [Example-125, 2-[(2-Chloro-6-fluorophenyl)amino]-N-[6-(cyclopropylmethoxy)pyridin-3-yl]-7,7-dimethyl-7,8-dihydro-1H-furo[3,2-e]benzimidazole-5-carboxamide]
inhibition at 1 µM: 10.6%
inhibition at 10 µM: 76.7%

SMILES: CC1(C)Cc2c(c(C(=O)NCC(F)(F)C(F)(F)F)cc3nc(Nc4ccc(F)cc4Cl)[nH]c23)O1 [Example-94, 2-[(2-Chloro-4-fluorophenyl)amino]-7,7-dimethyl-N-(2,2,3,3,3-pentafluoropropyl)-7,8-dihydro-1H-furo[3,2-e]benzimidazole-5-carboxamide]
inhibition at 1 µM: 66%
inhibition at 10 µM: 76.4%

SMILES: Cc1cc2c(o1)c(C(=O)NCCC(C)C)cc1nc(Nc3c(Cl)cncc3Cl)[nH]c12 [Example-50, 2-[(3,5-Dichloropyridin-4-yl)amino]-7-methyl-N-(3-methylbutyl)-1H-furo[3,2-e]benzimidazole-5-carboxamide]
inhibition at 1 µM: 89.2%
inhibition at 10 µM: 99.3%

SMILES: Cc1cccc(Cl)c1Nc1nc2cc(C(=O)Nc3ccc(C(F)(F)F)cn3)c3c(c2[nH]1)CC(C)(C)O3 [Example-124, 2-[(2-Chloro-6-methylphenyl)amino]-7,7-dimethyl-N-[5-(trifluoromethyl)pyridin-2-yl]-7,8-dihydro-1H-furo[3,2-e]benzimidazole-5-carboxamide]
inhibition at 1 µM: 97.1%
inhibition at 10 µM: 100%
pIC50: > 7.30

Second part, the compound after the results:

inhibition at 1 µM: 83.2%
inhibition at 10 µM: 89.9%
pIC50: > 7.30
SMILES: CC1(C)Cc2c(c(C(=O)NCC3CCCCC3)cc3nc(Nc4c(F)cccc4Cl)[nH]c23)O1 [Example-42, 2-[(2-Chloro-6-fluorophenyl)amino]-N-(cyclohexylmethyl)-7,7-dimethyl-7,8-dihydro-1H-furo[3,2-e]benzimidazole-5-carboxamide]

inhibition at 1 µM: 96.8%
inhibition at 10 µM: 98.1%
pIC50: > 7.30
SMILES: CC1(C)Cc2c(c(C(=O)Nc3ccc(C#N)cc3)cc3nc(Nc4c(Cl)cccc4Cl)[nH]c23)O1 [Example-59, N-(4-Cyanophenyl)-2-[(2,6-dichlorophenyl)amino]-7,7-dimethyl-7,8-dihydro-1H-furo[3,2-e]benzimidazole-5-carboxamide]

inhibition at 1 µM: 88%
inhibition at 10 µM: 96.6%
pIC50: 7.00 to 7.30
SMILES: CC1(C)Cc2c(c(C(=O)NCCF)cc3nc(Nc4c(Cl)cccc4Cl)[nH]c23)O1 [Example-63, 2-[(2,6-Dichlorophenyl)amino]-N-(2-fluoroethyl)-7,7-dimethyl-7,8-dihydro-1H-furo[3,2-e]benzimidazole-5-carboxamide]

inhibition at 1 µM: 90.5%
inhibition at 10 µM: 94%
pIC50: > 7.30
SMILES: Cc1ccc(NC(=O)c2cc3nc(Nc4c(F)cccc4Cl)[nH]c3c3c2OC(C)(C)C3)c(F)c1 [Example-128, 2-((2-Chloro-6-fluorophenyl)amino)-N-(2-fluoro-4-methylphenyl)-7,7-dimethyl-7,8-dihydro-1H-benzofuro[4,5-d]imidazole-5-carboxamide]

inhibition at 1 µM: 96%
inhibition at 10 µM: 98.2%
pIC50: > 7.30
SMILES: CC1(C)Cc2c(c(C(=O)Nc3cccc(F)c3)cc3nc(Nc4c(F)cccc4Cl)[nH]c23)O1 [Example-56, 2-[(2-Chloro-6-fluorophenyl)amino]-N-(3-fluorophenyl)-7,7-dimethyl-7,8-dihydro-1H-furo[3,2-e]benzimidazole-5-carboxamide]

inhibition at 1 µM: 83%
inhibition at 10 µM: 83.1%
pIC50: > 7.30
SMILES: CCCCCNC(=O)c1cc2nc(Nc3c(Cl)cccc3Cl)[nH]c2c2c1OC(C)(C)C2 [Example-9, 2-[(2,6-Dichlorophenyl)amino]-7,7-dimethyl-N-pentyl-7,8-dihydro-1H-furo[3,2-e]benzimidazole-5-carboxamide]

inhibition at 1 µM: 47.2%
inhibition at 10 µM: 85.4%
SMILES: CC1(C)Cc2c(c(C(=O)Nc3nc(C(C)(C)C)cs3)cc3nc(Nc4c(F)cccc4Cl)[nH]c23)O1 [Example-53, N-(4-tert-Butyl-1,3-thiazol-2-yl)-2-[(2-chloro-6-fluorophenyl)amino]-7,7-dimethyl-7,8-dihydro-1H-furo[3,2-e]benzimidazole-5-carboxamide]

inhibition at 1 µM: 43.8%
inhibition at 10 µM: 72.3%
pIC50: > 7.30
SMILES: CC(O)CNC(=O)c1cc2nc(Nc3c(Cl)cccc3Cl)[nH]c2c2c1OC(C)(C)C2 (stereo not drawn) [Example-43, 2-[(2,6-Dichlorophenyl)amino]-N-(2-hydroxypropyl)-7,7-dimethyl-7,8-dihydro-1H-furo[3,2-e]benzimidazole-5-carboxamide]
